Tests used:
Format in all cases: binding, mouse
[1] = tested on: polyclonal antibodies to imatinib (Example 8a); experiment: Indirect competitive microtiter plate immunoassay (ELISA), cross-reactivity with polyclonal antibodies to imatinib; conditions: for Cross-reactivity of competitive immunoassay: ratio of IC50 imatinib to IC50 analyte
[2] = tested on: monoclonal antibody 9F2-4-31 to imatinib; experiment: Indirect competitive microtiter plate immunoassay (ELISA), cross-reactivity with monoclonal antibody 9F2-4-31; conditions: monoclonal antibody number 9F2-4-31; ratio of IC50 imatinib to IC50 analyte
Protocol: (§1) Mice from example 8a that were immunized with imatinib-KLH prepared in 6b were used to produce monoclonal antibodies. For monoclonal antibodies starting three days before the fusion, the mice were injected i.p. with 400 μg (3 days before fusion), 200 μg (2 days before fusion), and 200 μg (1 day before fusion) of imatinib-KLH in PSS/DMSO prepared in example 6b. Spleen cells were isolated from the selected mice and fused with 2×10^7 SP2/0 cells with 50% polyethylene glycol 1500 according to the method of Coligan, J. E. et al., eds., Current Protocols in Immunology, 2.5.1-2.5.8, (1992), Wiley & Sons, NY. The fused cells were plated on ten 96-well plates in DMEM/F12 supplemented with 20% FetalClone I, 2% L-glutamine (100 mM) and 2% 50× HAT. Two to three weeks later, the hybridoma supernatant was assayed for the presence of anti-imatinib antibodies by ELISA (as in example fob). […] Clones positive by ELISA were subcloned twice by limiting dilution according to the method disclosed in Coligan, J. E. et al., eds., Current Protocols in Immunology, 2.5.8-2.5.17, (1992), Wiley & Sons, NY. […] These monoclonal antibodies were tested for imatinib binding and cross-reactivity to a major imatinib metabolite, N-desmethyl imatinib, by indirect competitive microtiter plate assay as described in example 11. […]

[3] = tested on: monoclonal antibody 9F2-4-29 to imatinib; experiment: Indirect competitive microtiter plate immunoassay (ELISA), cross-reactivity with monoclonal antibody 9F2-4-29; conditions: monoclonal antibody number 9F2-4-29; ratio of IC50 imatinib to IC50 analyte
Protocol: as §1

[4] = tested on: antibodies to imatinib; experiment: Immunoassay reactivity of the antibodies produced in accordance with the invention (polyclonal and monoclonal); conditions: summary of Tables I and II
Protocol: Initial doses, bleedings and booster shots can be given according to accepted protocols for eliciting immune responses in animals, e.g., in a preferred embodiment mice received an initial dose of 100 ug immunogen/mouse, i.p. and two or more subsequent booster shots of between 50 and 100 ug immunogen/mouse over a six month period.
The ELISA method for determining IC50 values and cross-reactivity was performed with the microtiter plates that were sensitized with imatinib-BSA described in Examples 9. Analytes—imatinib and N-desmethyl imatinib were diluted in diH2O over a concentration range of 10 to 1,000,000 ng/mL. […] The assays were all performed by diluting the concentration of the antibodies in each of the wells to the titer determined in Example 10a. […] Following the incubation for color development, 50 of stop solution (1.5% sodium fluoride in di H2O) was added to each well to stop the color development and after 20 seconds of shaking the absorbance was determined at 650 nm (Molecular Devices Plate Reader). The amount of antibody in a well was proportional to the absorbance measured and inversely proportional to the amount of imatinib in the sample. The IC50's of imatinib and N-desmethyl imatinib were determined by constructing dose-response curves with the absorbance in the wells plotted versus analyte concentration in the wells. […]

[5] = tested on: selected monoclonal antibodies to imatinib (Example 8b); experiment: Indirect competitive microtiter plate immunoassay (ELISA), cross-reactivity with selected monoclonal antibodies; conditions: measured with selected monoclonal antibodies
Protocol: Mice from example 8a that were immunized with imatinib-KLH prepared in 6b were used to produce monoclonal antibodies. For monoclonal antibodies starting three days before the fusion, the mice were injected i.p. with 400 μg (3 days before fusion), 200 μg (2 days before fusion), and 200 μg (1 day before fusion) of imatinib-KLH in PSS/DMSO prepared in example 6b. Spleen cells were isolated from the selected mice and fused with 2×10^7 SP2/0 cells with 50% polyethylene glycol 1500 according to the method of Coligan, J. E. et al., eds., Current Protocols in Immunology, 2.5.1-2.5.8, (1992), Wiley & Sons, NY. The fused cells were plated on ten 96-well plates in DMEM/F12 supplemented with 20% FetalClone I, 2% L-glutamine (100 mM) and 2% 50× HAT. Two to three weeks later, the hybridoma supernatant was assayed for the presence of anti-imatinib antibodies by ELISA (as in example fob). Cells from the wells that gave positive ELISA results (example lob) were expanded to 24 well plates. Clones positive by ELISA were subcloned twice by limiting dilution according to the method disclosed in Coligan, J. E. et al., eds., Current Protocols in Immunology, 2.5.8-2.5.17, (1992), Wiley & Sons, NY. Hybridoma culture supernatants containing monoclonal antibody from selected subclones were confirmed for imatinib binding by a competitive ELISA (example 11). […]

[6] = polyclonal Bleed # 1, immunogen of example 6b
[7] = polyclonal Bleed # 2, immunogen of example 6b
[8] = polyclonal Bleed # 3, immunogen of example 6b
[9] = polyclonal Bleed # 4, immunogen of example 6a
[10] = polyclonal Bleed # 5, immunogen of example 6a

| Structure (SMILES) | Cross-reactivity of competitive immunoassay [1, 6] [%] | Cross-reactivity of competitive immunoassay [1, 7] [%] | Cross-reactivity of competitive immunoassay [1, 8] [%] | Cross-reactivity of competitive immunoassay [1, 9] [%] | Cross-reactivity of competitive immunoassay [1, 10] [%] | Cross-reactivity of competitive immunoassay [2] [%] | Cross-reactivity of competitive immunoassay [3] [%] | percent cross-reactivities relative to imatinib ([1]; measured with this pool of (polyclonal) antibodies) | reactivity with the antibodies [4] | percent cross-reactivities relative to imatinib [5] |
| --- | --- | --- | --- | --- | --- | --- | --- | --- | --- | --- |
| Cc1ccc(NC(=O)c2ccc(CN3CCN(C)CC3)cc2)cc1Nc1nccc(-c2cccnc2)n1 [Imatinib] | 100 | 100 | 100 | 100 | 100 | 100 | 100 |  |  |  |
| Cc1ccc(NC(=O)c2ccc(CN3CCNCC3)cc2)cc1Nc1nccc(-c2cccnc2)n1 [N-desmethyl imatinib] | 1 | 5 | 2 | 7 | 1 | 3.2 | 2.7 | less than or equal to 7% | substantially non-reactive | less than 4% |

Reference: patent US8263749B2, “Imatinib immunoassay” (Saladax Biomedical Inc., priority 2009, dated 2012)
